Source: ChEMBL document CHEMBL5727805, “Bicyclic quinazolinone derivatives” (2020)

Target: Autotaxin (Homo sapiens, UniProt Q13822)
Assay: Human ATX Enzyme Inhibition Assay: ATX inhibition was measured by a fluorescence quenching assay using a specifically labeled substrate analogue (MR121 substrate). To obtain this MR121 substrate, BOC and TBS protected 6-amino-hexanoic acid (R)-3-({2-[3-(2-{2-[2-(2-amino-ethoxy)-ethoxy]-ethoxy}-ethoxy)-propionylamino]-ethoxy}-hydroxy-phosphoryloxy)-2-hydroxy-propyl ester (Ferguson et al., Org. Lett. 2006, 8, 2023) was labeled with MR121 fluorophore [CAS RN 185308-24-1], 1-(3-carboxypropyl)-11-ethyl-1,2,3,4,8,9,10,11-octahydro-dipyrido[3,2-b:2′,3′-i]phenoxazin-13-ium) on the free amine of the ethanolamine side and then, after deprotection, subsequently with tryptophan on the side of the aminohexanoic acid.Assay working solutions were made as follows:Assay buffer (50 mM Tris-HCl, 140 mM NaCl, 5 mM KCl, 1 mM CaCl2, 1 mM MgCl2, 0.01% Triton-X-100, pH 8.0;ATX solution: ATX (human His-tagged) stock solution (1.08 mg/mL in 20 mM bicine, pH 8.5, 0.15 M NaCl, 10% glycerol, 0.3% CHAPS, 0.02% NaN3), diluted to 1.4-2.5× final concentration in assay buffer;MR121 substrate solution: MR121 substrate stock solution (800 μM MR121 substrate in DMSO), diluted to 2-5× final concentration in assay buffer.Test compounds (10 mM stock in DMSO, 8 μL) were obtained in 384 well sample plates (Corning Costar #3655) and diluted with 8 μL DMSO. […]

`CC(=O)N1CCCN(c2ccc3ncn(CC(=O)NCc4ccc(Cl)c(Cl)c4)c(=O)c3c2)CC1` was tested. Which IC50 did it give?
The IC50 was 35 nM.
